# Laboratory results published in PubChem BioAssay (NCI).
#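 Five concentrations, 48 hours, 96-well plates. TGI: concentration producing complete growth inhibition.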
# Tests used:
# Assay in all cases: NCI tumour cell line growth inhibition, 48 h
# SK-MEL-2 melanoma = test system: SK-MEL-2 melanoma
# CCRF-CEM leukemia = test system: CCRF-CEM leukemia
# CAKI-1 renal = test system: CAKI-1 renal
# SN12C renal = test system: SN12C renal
# DLD-1 colon = test system: DLD-1 colon
# MALME-3M melanoma = test system: MALME-3M melanoma
# DMS 114 small cell lung = test system: DMS 114 small cell lung
# SF-268 CNS = test system: SF-268 CNS
# M14 melanoma = test system: M14 melanoma
# SF-539 CNS = test system: SF-539 CNS
# IGROV1 ovarian = test system: IGROV1 ovarian
# K-562 leukemia = test system: K-562 leukemia
# LXFL 529 NSCLC = test system: LXFL 529 NSCLC
# OVCAR-3 ovarian = test system: OVCAR-3 ovarian
# NCI-H460 lung = test system: NCI-H460 lung
# UO-31 renal = test system: UO-31 renal
# M19-MEL melanoma = test system: M19-MEL melanoma
# NCI-H23 lung = test system: NCI-H23 lung
# A498 renal = test system: A498 renal
# SNB-78 CNS = test system: SNB-78 CNS
# SK-MEL-28 melanoma = test system: SK-MEL-28 melanoma
# RPMI-8226 leukemia = test system: RPMI-8226 leukemia
# UACC-62 melanoma = test system: UACC-62 melanoma
# TK-10 renal = test system: TK-10 renal
# U251 CNS = test system: U251 CNS
# HOP-92 NSCLC = test system: HOP-92 NSCLC
# COLO 205 colon = test system: COLO 205 colon
# SNB-75 CNS = test system: SNB-75 CNS
# MOLT-4 leukemia = test system: MOLT-4 leukemia
# DMS 273 small cell lung = test system: DMS 273 small cell lung
# SNB-19 CNS = test system: SNB-19 CNS
# ACHN renal = test system: ACHN renal
# HT29 colon = test system: HT29 colon
# NCI-H522 lung = test system: NCI-H522 lung
# SW-620 colon = test system: SW-620 colon
# NCI-H226 lung = test system: NCI-H226 lung
# HOP-18 NSCLC = test system: HOP-18 NSCLC
# SK-OV-3 ovarian = test system: SK-OV-3 ovarian
# OVCAR-8 ovarian = test system: OVCAR-8 ovarian
# SK-MEL-5 melanoma = test system: SK-MEL-5 melanoma
# LOX IMVI melanoma = test system: LOX IMVI melanoma
# RXF-631 renal = test system: RXF-631 renal
# HCT-15 colon = test system: HCT-15 colon
# SF-295 CNS = test system: SF-295 CNS
# HL-60(TB) leukemia = test system: HL-60(TB) leukemia
# KM20L2 colon = test system: KM20L2 colon
# EKVX NSCLC = test system: EKVX NSCLC
# OVCAR-5 ovarian = test system: OVCAR-5 ovarian
# 786-0 renal = test system: 786-0 renal
# OVCAR-4 ovarian = test system: OVCAR-4 ovarian
# A549 NSCLC = test system: A549 NSCLC
# UACC-257 melanoma = test system: UACC-257 melanoma
# XF 498 CNS = test system: XF 498 CNS
# RXF 393 renal = test system: RXF 393 renal
# KM12 colon = test system: KM12 colon
# HCT-116 colon = test system: HCT-116 colon
# HOP-62 NSCLC = test system: HOP-62 NSCLC
smiles,measurement,setting,value
COc1cc2c(cc1OC)C(Cl)C(c1cc(OC)c(OC)c(OC)c1)=C2Cl (stereo not given),TGI,SK-MEL-2 melanoma,34.1 µM
same,TGI,CCRF-CEM leukemia,40.7 µM
same,TGI,CAKI-1 renal,32.5 µM
same,TGI,SN12C renal,36.6 µM
same,TGI,DLD-1 colon,51.4 µM
same,TGI,MALME-3M melanoma,30.6 µM
same,TGI,DMS 114 small cell lung,26.2 µM
same,TGI,SF-268 CNS,55.7 µM
same,TGI,M14 melanoma,35.2 µM
same,TGI,SF-539 CNS,26.7 µM
same,TGI,IGROV1 ovarian,54.7 µM
same,TGI,K-562 leukemia,> 100 µM
same,TGI,LXFL 529 NSCLC,24.6 µM
same,TGI,OVCAR-3 ovarian,31.9 µM
same,TGI,NCI-H460 lung,32.4 µM
same,TGI,UO-31 renal,27.1 µM
same,TGI,M19-MEL melanoma,28.7 µM
same,TGI,NCI-H23 lung,51.8 µM
same,TGI,A498 renal,61.1 µM
same,TGI,SNB-78 CNS,46.4 µM
same,TGI,SK-MEL-28 melanoma,31.9 µM
same,TGI,RPMI-8226 leukemia,37 µM
same,TGI,UACC-62 melanoma,28.9 µM
same,TGI,TK-10 renal,62.2 µM
same,TGI,U251 CNS,33 µM
same,TGI,HOP-92 NSCLC,27.9 µM
same,TGI,COLO 205 colon,32.9 µM
same,TGI,SNB-75 CNS,18.1 µM
same,TGI,MOLT-4 leukemia,29.9 µM
same,TGI,DMS 273 small cell lung,34.6 µM
same,TGI,SNB-19 CNS,37.2 µM
same,TGI,ACHN renal,28.8 µM
same,TGI,HT29 colon,30.3 µM
same,TGI,NCI-H522 lung,23 µM
same,TGI,SW-620 colon,46.1 µM
same,TGI,NCI-H226 lung,41.4 µM
same,TGI,HOP-18 NSCLC,32.3 µM
same,TGI,SK-OV-3 ovarian,56.2 µM
same,TGI,OVCAR-8 ovarian,48.7 µM
same,TGI,SK-MEL-5 melanoma,30.5 µM
same,TGI,LOX IMVI melanoma,30.2 µM
same,TGI,RXF-631 renal,38.2 µM
same,TGI,HCT-15 colon,49.4 µM
same,TGI,SF-295 CNS,29.9 µM
same,TGI,HL-60(TB) leukemia,44.3 µM
same,TGI,KM20L2 colon,36.6 µM
same,TGI,EKVX NSCLC,79.4 µM
Cc1cc(C)nc(NS(=O)(=O)c2ccc(NC(=O)c3cccc4cc5ccccc5nc34)cc2)n1,TGI,SK-MEL-2 melanoma,85.6 µM
same,TGI,CCRF-CEM leukemia,77.5 µM
same,TGI,CAKI-1 renal,> 100 µM
same,TGI,SN12C renal,> 100 µM
same,TGI,DLD-1 colon,98.4 µM
same,TGI,MALME-3M melanoma,56.7 µM
same,TGI,SF-268 CNS,> 100 µM
same,TGI,M14 melanoma,51.4 µM
same,TGI,SF-539 CNS,34 µM
same,TGI,IGROV1 ovarian,> 100 µM
same,TGI,K-562 leukemia,> 100 µM
same,TGI,LXFL 529 NSCLC,> 100 µM
same,TGI,OVCAR-3 ovarian,65.3 µM
same,TGI,NCI-H460 lung,> 100 µM
same,TGI,UO-31 renal,> 100 µM
same,TGI,M19-MEL melanoma,79 µM
same,TGI,NCI-H23 lung,86.5 µM
same,TGI,A498 renal,50.5 µM
same,TGI,OVCAR-5 ovarian,> 100 µM
same,TGI,786-0 renal,> 100 µM
same,TGI,OVCAR-4 ovarian,> 100 µM
same,TGI,SNB-78 CNS,72.7 µM
same,TGI,SK-MEL-28 melanoma,> 100 µM
same,TGI,RPMI-8226 leukemia,85.7 µM
same,TGI,UACC-62 melanoma,79.3 µM
same,TGI,TK-10 renal,> 100 µM
same,TGI,U251 CNS,> 100 µM
same,TGI,COLO 205 colon,> 100 µM
same,TGI,SNB-75 CNS,> 100 µM
same,TGI,MOLT-4 leukemia,> 100 µM
same,TGI,A549 NSCLC,> 100 µM
same,TGI,DMS 273 small cell lung,> 100 µM
same,TGI,SNB-19 CNS,90.7 µM
same,TGI,ACHN renal,> 100 µM
same,TGI,HT29 colon,> 100 µM
same,TGI,UACC-257 melanoma,> 100 µM
same,TGI,NCI-H522 lung,54.3 µM
same,TGI,SW-620 colon,> 100 µM
same,TGI,XF 498 CNS,98.2 µM
same,TGI,NCI-H226 lung,46.5 µM
same,TGI,SK-OV-3 ovarian,> 100 µM
same,TGI,RXF 393 renal,> 100 µM
same,TGI,OVCAR-8 ovarian,> 100 µM
same,TGI,SK-MEL-5 melanoma,> 100 µM
same,TGI,LOX IMVI melanoma,56.1 µM
same,TGI,KM12 colon,84.9 µM
same,TGI,HCT-116 colon,32.1 µM
same,TGI,RXF-631 renal,> 100 µM
same,TGI,HCT-15 colon,58.5 µM
same,TGI,SF-295 CNS,> 100 µM
same,TGI,KM20L2 colon,> 100 µM
same,TGI,EKVX NSCLC,> 100 µM
same,TGI,HOP-62 NSCLC,> 100 µM
